In ChEMBL document CHEMBL1150181, “Chemistry of Sponges, VIII. Anomoian A, a Bromotyrosine Derivative from Anomoiantbella popeae” (J Nat Prod, 1990):
The source made the active and inactive calls.

Columns and labels:
Type in all cases: functional, organism-based
Bacillus subtilis = assay: Antimicrobial activity against Bacillus subtilis at 5 ug/disk
Candida albicans = assay: Antimicrobial activity against Candida albicans at 25 ug/disk
Staphylococcus aureus = assay: Antimicrobial activity against Staphylococcus aureus at 10 ug/disk

Measured: Activity

CNC(Cc1cc(Br)c(OC)c(Br)c1)C(=O)NCCCOc1c(Br)cc(CCN(C)C)cc1Br (stereo not drawn)
active: Bacillus subtilis | Candida albicans | Staphylococcus aureus
